Laboratory results published in US11369589B2, “Modulator of indoleamine 2,3-dioxygenase, preparation method and use thereof” (NANJING CAREPHAR SHENGHUI PHARMACEUTICAL CO., LTD., priority 2018, dated 2022).

How the values were obtained:
Format in all cases: in vitro ADME
[1] = Original drug Epacadostat plasma stability test (Embodiment 7.4); conditions: rat plasma, 37° C.
Description: Liquid chromatograph: Waters 2489UV/Visible Detector, Waters 1525BinaryHPLC Pump.
(§1) Mobile phase: acetonitrile (50% to 80%) and water gradient elution.
(§2) Flow rate: 1 mL/min at a column temperature of 25° C.
(§3) Detection wavelength: 254 nm at a sample size of 10 μL.
(§4) Under the condition of no mobile phase interference, the Epacadostat retention time was about 20 min.
(§5) 120 μL of the sample was precisely sucked at a specified time point each time. 120 μL of acetonitrile was added. High-speed vortex mixing was performed for 2 min. Centrifugation was performed at 10000 r/min for 15 min. Supernatant was taken and filtered by a 13 mm 0.45 μm filter membrane, and then determination could be performed.
(§6) 20 μL of DMSO solution (120 mg/mL) of Epacadostat was taken and added into 1.18 mL of fresh rat blank plasma. Incubation was performed at 37° C. 120 μL of sample was taken at different time points respectively. Sample pretreatment was performed according to the method of 7.3. Determination was performed by an HPLC method. A peak area was recorded, and a drug concentration was calculated.

[2] = Original drug Epacadostat plasma stability test (Embodiment 14, 6.4); conditions: rat plasma, 37° C.
Description: Liquid chromatograph: Waters 2489UV/Visible Detector, Waters 1525Binary HPLC Pump.
as §1, §2, §3, §4, §5
as §6, with “6.3.” for “7.3.”

[3] = In vitro plasma conversion experiment of target compounds (Embodiment 7.5); conditions: rat, 2 mg/mL (as Epacadostat equivalents)
Description: as §1, §2, §3
The target compounds were dissolved into a DMSO solvent. […] 20 μL of the solution was taken and added into 1.18 mL of fresh rat blank plasma, and incubation was carried out at 37° C. to obtain a sample.
as §5
Incubation was performed at 37° C. 120 μL of sample was taken at different time points respectively. Sample pretreatment was performed according to the method of 7.3. Determination was performed by an HPLC method. A peak area was recorded, and a drug concentration was calculated.
According to the method of 7.4, we performed in vitro plasma conversion experiment on the target compounds to test conversion rates of the compounds converted into the Epacadostat at different time points.

Epacadostat concentration in plasma ([1]; time 1 h) [mg/mL]	Epacadostat concentration in plasma ([1]; time 3 h) [mg/mL]	Epacadostat concentration in plasma ([1]; time 6 h) [mg/mL]	Epacadostat concentration in plasma ([1]; time 24 h) [mg/mL]	Stability in plasma (in words) ([1]; up to 24 h)	Epacadostat concentration in plasma ([2]; time 1 h) [mg/mL]	Epacadostat concentration in plasma ([2]; time 3 h) [mg/mL]	Epacadostat concentration in plasma ([2]; time 6 h) [mg/mL]	Epacadostat concentration in plasma ([2]; time 24 h) [mg/mL]	Stability in plasma (in words) ([2]; up to 24 h)	Conversion rate into Epacadostat ([3]; 0.5 h) [%]	Conversion rate into Epacadostat ([3]; 1 h) [%]	Conversion rate into Epacadostat ([3]; 2 h) [%]	Conversion rate into Epacadostat ([3]; 3 h) [%]	Conversion rate into Epacadostat ([3]; 6 h) [%]	Conversion rate into Epacadostat ([3]; 12 h) [%]	Compound
1.22	1.20	1.24	1.20	can stably exist in the plasma	1.22	1.20	1.24	1.20	can stably exist in the plasma	–	–	–	–	–	–	NS(=O)(=O)NCCNc1nonc1C(=NO)Nc1ccc(F)c(Br)c1 [Epacadostat]
–	–	–	–	–	–	–	–	–	–	33.7	56.3	77.2	87.2	93.8	100	CC(C)C(=O)O/N=C(\Nc1ccc(F)c(Br)c1)c1nonc1NCCNS(=O)(=O)N=Cc1cccs1 [II-1]
–	–	–	–	–	–	–	–	–	–	31.1	43.1	58.3	70.3	88.3	98.3	CCCC(=O)O/N=C(\Nc1ccc(F)c(Br)c1)c1nonc1NCCNS(=O)(=O)N=Cc1ccc(N(C)C)cc1 [II-3]
–	–	–	–	–	–	–	–	–	–	47.2	49.0	51.6	75.2	89.6	100	CCCCC(=O)O/N=C(\Nc1ccc(F)c(Br)c1)c1nonc1NCCNS(=O)(=O)N=Cc1ccc(Cl)s1 [II-4]
